Test results from patent US20260092083A1, “VANCOMYCIN DERIVATIVES WITH SIDEROPHORE MODIFICATION AS NOVEL REPURPOSED ANTIBIOTICS TO COMBAT GRAM-NEGATIVE BACTERIAL INFECTION” (priority 2023, published 2026).
≈ marks a conversion by molar mass, not a printed value.

Tests used:
Assay type in all cases: cell-based
[1] = tested on: E. coli (wild-type) BW25113; test: Broth microdilution MIC, E. coli wild-type; conditions: Escherichia coli, iron-depleted CAMHB, OD600 ≤0.15, read-out: MIC (μg/mL) Gram-negative EC
Description: (§1) The test compounds including vancomycin hydrochloride were supplied as a 6.4 mg/mL solution in 100% dimethyl sulfoxide (DMSO) aliquoted into individual wells of a 96-well plate (50 μL per well). […] Standardized inocula were added to the MIC test plates, which were incubated for the prescribed times at 35° C. The N. gonorrhoeae strain was incubated in an atmosphere containing 5% CO2.
(§2) The final optical density of each well at 600 nm was measured using a Tecan Spark plate reader. The compound concentration versus OD600 data were then curve fit using custom software. An MIC value was defined as the lowest compound concentration that led to an OD600 value≤0.15 for the E. coli, K. pneumoniae, P. aeruginosa, A. baumannii, or S. aureus strains. For the N. gonorrhoeae strain, an OD600 value≤0.19 was used as a cutoff to define an MIC value; this higher cut-off value was required because the N. gonorrhoeae MIC plates were covered with plastic seals that increased the background OD600 value.
(§3) JMI Laboratories followed current CLSI quality assurance practices when performing the susceptibility tests. MIC values were validated by concurrently testing the CLSI-recommended ATCC QC reference strains S. aureus ATCC 29213 and K. pneumoniae ATCC 700603. The inoculum density during susceptibility testing was monitored by bacterial colony counts. Where applicable, QC ranges for tested reference strains were those ranges approved or published by CLSI for testing in CAMHB. […] Importantly, the CLSI reference method for testing N. gonorrhoeae is the agar dilution MIC method, which was not used here. Thus, CLSI MIC QC ranges for N. gonorrhoeae could not be applied to the antimicrobials studied here.
(§4) Abbreviations: EC, E. coli (wild-type) BW25113; EC efflux^−, E. coli (tolC) JW5503-1; KPN, K. pneumoniae ATCC 700603; PSA, P. aeruginosa PAO1; PSA efflux^−, P. aeruginosa (multi-pump-gene mutant) PAM1626; ACB, A. baumannii JMI #1186154; GC, N. gonorrhoeae WHO-Z; SA, S. aureus ATCC 29213. Broth microdilution MIC values were measured in iron-depleted CAMHB for all strains except for GC, which was tested in fastidious broth.

[2] = tested on: E. coli (tolC) JW5503-1; test: Broth microdilution MIC, E. coli efflux-deficient (tolC); conditions: Escherichia coli, read-out: MIC (μg/mL) Gram-negative EC Efflux
Description: as §1, §2, §3, §4

[3] = tested on: K. pneumoniae ATCC 700603; test: Broth microdilution MIC, K. pneumoniae; conditions: Klebsiella pneumoniae, ATCC700603, read-out: MIC (μg/mL) Gram-negative KPN
Description: as §1, §2, §3, §4

[4] = tested on: P. aeruginosa PAO1; test: Broth microdilution MIC, P. aeruginosa; conditions: Pseudomonas aeruginosa, iron-depleted CAMHB, OD600 ≤0.15, read-out: MIC (μg/mL) Gram-negative PSA
Description: as §1, §2, §3, §4

[5] = tested on: P. aeruginosa (multi-pump-gene mutant) PAM1626; test: Broth microdilution MIC, P. aeruginosa efflux-deficient; conditions: Pseudomonas aeruginosa, read-out: MIC (μg/mL) Gram-negative PSA Efflux
Description: as §1, §2, §3, §4

[6] = tested on: A. baumannii JMI #1186154; test: Broth microdilution MIC, A. baumannii; conditions: Acinetobacter baumannii, iron-depleted CAMHB, OD600 ≤0.15, read-out: MIC (μg/mL) Gram-negative ACB
Description: as §1, §2, §3, §4

[7] = tested on: N. gonorrhoeae WHO-Z; test: Broth microdilution MIC, N. gonorrhoeae; conditions: Neisseria gonorrhoeae, read-out: MIC (μg/mL) Gram-negative GC
Description: as §1, §2, §3, §4

[8] = tested on: S. aureus ATCC 29213; test: Broth microdilution MIC, S. aureus; conditions: Staphylococcus aureus, ATCC29213, iron-depleted CAMHB, OD600 ≤0.15, read-out: MIC (μg/mL) Gram positive SA
Description: as §1, §2, §3, §4

Compound	MIC [1] [µg/mL]	MIC [2] [µg/mL]	MIC [3] [µg/mL]	MIC [4] [µg/mL]	MIC [5] [µg/mL]	MIC [6] [µg/mL]	MIC [7] [µg/mL]	MIC [8] [µg/mL]
CN[C@H](CC(C)C)C(=O)N[C@H]1C(=O)N[C@@H](CC(N)=O)C(=O)N[C@H]2C(=O)N[C@H]3C(=O)N[C@H](C(=O)N[C@H](C(=O)NCCCNS(=O)(=O)c4ccc(O)c(O)c4)c4cc(O)cc(O)c4-c4cc3ccc4O)[C@H](O)c3ccc(c(Cl)c3)Oc3cc2cc(c3O[C@@H]2O[C@H](CO)C(O)C(O)[C@H]2O[C@H]2CC(C)(N)[C@H](O)[C@H](C)O2)Oc2ccc(cc2Cl)[C@H]1O (some centres unmarked) [Compound 16]	32 (≈ 19.1 µM)	64 (≈ 38.2 µM)	> 64	> 64	> 64	4 (≈ 2.38 µM)	> 64	4 (≈ 2.38 µM)
CN[C@H](CC(C)C)C(=O)N[C@H]1C(=O)N[C@@H](CC(N)=O)C(=O)N[C@H]2C(=O)N[C@H]3C(=O)N[C@H](C(=O)N[C@H](C(=O)NCCCCNS(=O)(=O)c4ccc(O)c(O)c4)c4cc(O)cc(O)c4-c4cc3ccc4O)[C@H](O)c3ccc(c(Cl)c3)Oc3cc2cc(c3O[C@@H]2O[C@H](CO)C(O)C(O)[C@H]2O[C@H]2CC(C)(N)[C@H](O)[C@H](C)O2)Oc2ccc(cc2Cl)[C@H]1O (some centres unmarked) [Compound 17]	32 (≈ 18.9 µM)	64 (≈ 37.8 µM)	> 64	> 64	> 64	2 (≈ 1.18 µM)	> 64	2 (≈ 1.18 µM)
CNC(CC(C)C)C(=O)N[C@H]1C(=O)N[C@@H](CC(N)=O)C(=O)N[C@H]2C(=O)N[C@H]3C(=O)N[C@H](C(=O)N[C@@H](C(=O)NCc4cn(CCNC(=O)c5ccc(O)c(O)c5Cl)nn4)c4cc(O)cc(O)c4-c4cc3ccc4O)[C@H](O)c3ccc(c(Cl)c3)Oc3cc2cc(c3OC2O[C@H](CO)C(O)C(O)[C@H]2O[C@H]2CC(C)(N)[C@H](O)C(C)O2)Oc2ccc(cc2Cl)[C@H]1O (some centres unmarked) [Compound 19]	> 64	> 64	> 64	> 64	> 64	1 (≈ 0.574 µM)	> 64	8 (≈ 4.59 µM)
CNC(CC(C)C)C(=O)NC1C(=O)NC(CC(N)=O)C(=O)NC2C(=O)NC3C(=O)NC(C(=O)N[C@H](C(=O)O)c4cc(O)c(CNCCCNC(=O)c5ccc(O)c(O)c5Cl)c(O)c4-c4cc3ccc4O)C(O)c3ccc(c(Cl)c3)Oc3cc2cc(c3OC2OC(CO)C(O)C(O)C2OC2CC(C)(N)C(O)C(C)O2)Oc2ccc(cc2Cl)C1O (some centres unmarked) [Compound 22]	16 (≈ 9.38 µM)	32 (≈ 18.8 µM)	> 64	> 64	> 64	4 (≈ 2.34 µM)	> 64	64 (≈ 37.5 µM)
CNC(CC(C)C)C(=O)NC1C(=O)NC(CC(N)=O)C(=O)NC2C(=O)NC3C(=O)NC(C(=O)N[C@H](C(=O)O)c4cc(O)c(CNCCCCNC(=O)c5ccc(O)c(O)c5Cl)c(O)c4-c4cc3ccc4O)C(O)c3ccc(c(Cl)c3)Oc3cc2cc(c3OC2OC(CO)C(O)C(O)C2OC2CC(C)(N)C(O)C(C)O2)Oc2ccc(cc2Cl)C1O (some centres unmarked) [Compound 23]	64 (≈ 37.2 µM)	> 64	> 64	> 64	> 64	8 (≈ 4.65 µM)	> 64	64 (≈ 37.2 µM)
CNC(CC(C)C)C(=O)NC1C(=O)NC(CC(N)=O)C(=O)NC2C(=O)NC3C(=O)NC(C(=O)N[C@H](C(=O)O)c4cc(O)c(CNCCNC(=O)c5cccc(O)c5O)c(O)c4-c4cc3ccc4O)C(O)c3ccc(c(Cl)c3)Oc3cc2cc(c3OC2OC(CO)C(O)C(O)C2OC2CC(C)(N)C(O)C(C)O2)Oc2ccc(cc2Cl)C1O (some centres unmarked) [Compound 24]	> 64	> 64	> 64	> 64	> 64	8 (≈ 4.83 µM)	> 64	32 (≈ 19.3 µM)
CNC(CC(C)C)C(=O)NC1C(=O)NC(CC(N)=O)C(=O)NC2C(=O)NC3C(=O)NC(C(=O)N[C@H](C(=O)O)c4cc(O)c(CNCCN[S@SP3](=O)(=O)c5ccc(O)c(O)c5)c(O)c4-c4cc3ccc4O)C(O)c3ccc(c(Cl)c3)Oc3cc2cc(c3OC2OC(CO)C(O)C(O)C2OC2CC(C)(N)C(O)C(C)O2)Oc2ccc(cc2Cl)C1O (some centres unmarked) [Compound 25]	16 (≈ 9.45 µM)	64 (≈ 37.8 µM)	> 64	> 64	> 64	32 (≈ 18.9 µM)	> 64	4 (≈ 2.36 µM)
